Laboratory results: US8084461B2 (Dey, L.P., priority 2001, dated 2011)
Counter-ions that a name gives are not always drawn.

Assays:
patients with COPD [1] = assay: Double-blind, randomized, positive control trial: FEV1 response (efficacy); assay type: in vivo, human; details: Crossover phase, nebulized 4 times per day
Procedure: (§1) To evaluate the efficacy and safety of the inhalation solution of the present invention, a double-blind, randomized, positive control trial was performed.
(§2) All study medications were administered 4 times per day (ideally every 6 hours) by inhalation using a PARI LC PLUS™ nebulizer and PARI PRONEB® compressor. Concomitant use of bronchodilators was restricted during the trial. Oral and inhaled steroic use was permitted throughout the trial, provided that dosing remained constant.

patients with COPD [2] = assay: Double-blind, randomized, positive control trial: treatment-emergent adverse events (safety/tolerability); details: percent of patients; for (%) Patients with A (adverse events): any adverse event
Procedure: as §1, §2

SMILES | Peak FEV1 mean (change from pre-dose to peak FEV1 within 3 hours after dosing) (patients with COPD [1]; Combination vs. Ipratropium comparison) [L] | Bronchitis (RESPIRATORY), % (patients with COPD [2]) | Cramps leg (MUSCULO-SKELETAL), % (patients with COPD [2]) | Diarrhea (DIGESTIVE), % (patients with COPD [2]) | Dyspepsia (DIGESTIVE), % (patients with COPD [2]) | Infection urinary tract (UROGENITAL), % (patients with COPD [2]) | Lung Disease (RESPIRATORY), % (patients with COPD [2]) | Nausea (DIGESTIVE), % (patients with COPD [2]) | Pain (BODY AS A WHOLE), % (patients with COPD [2]) | Pain chest (BODY AS A WHOLE), % (patients with COPD [2]) | Pharyngitis (RESPIRATORY), % (patients with COPD [2]) | Pneumonia (RESPIRATORY), % (patients with COPD [2]) | (%) Patients with A (adverse events) (patients with COPD [2]) | Peak FEV1 mean (change from pre-dose to peak FEV1 within 3 hours after dosing) (patients with COPD [1]; Combination vs. Albuterol comparison) [L]
CC(C)[N+]1(C)C2CCC1CC(OC(=O)C(CO)c1ccccc1)C2 (racemic) [Ipratropium, 8-azoniabicyclo [3.2.1]-octane, 3-(3, hydroxyl-1-oxo-2-phenylpropoxy)-8methyl-8-(1-methylethyl)-bromide, monohydrate, (endo, syn)-, (±)-] | 0.282 | (1.7) % | (0.8) % | (1.2) % | (1.1) % | (1.2) % | (4.5) % | (0.8) % | (0.5) % | (1.9) % | (3.6) % | (1.1) % | (43.6) % | –
CC(C)(C)NCC(O)c1ccc(O)c(CO)c1 (stereo not drawn) [Albuterol, α^1-[(tert-butylamino)methyl]-4-hydroxy-m-xylene-α,α′-diol sulfate (2:1)(salt)] | – | (1.4) % | (1.1) % | (0.7) % | (0.9) % | (0.4) % | (4.7) % | (0.9) % | (1.1) % | (1.4) % | (3.5) % | (0.9) % | (43.0) % | 0.313
